From the supplement of paper PMC10307832

Key:
Assay in all cases: relative viability (nuclei count vs DMSO), 5 days (fraction); higher = more cells survive
[1] = compound: CC(=O)Nc1cccc(-n2c(=O)n(C3CC3)c(=O)c3c(Nc4ccc(I)cc4F)n(C)c(=O)c(C)c32)c1 [Trametinib] + CC(C)C[C@H](NC(=O)[C@H](Cc1ccccc1)NC(=O)c1cnccn1)B(O)O [Bortezomib] (partner 0.002 µM)
Outline: (§1)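 Lung cancer cell lines were pin-tool dosed in 1536-well plates on the day after seeding, with either a lone drug or a fixed anchor-drug dose plus five library-drug doses (not always all listed) in √10 steps. Nuclei were counted on 4× images after 5 days. Relative viability is the ratio of treated-well to vehicle-well nuclei counts, with each value a median of duplicate plates.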

[2] = compound: CN1C=C(C2=CC=CC=C21)/C=C\3/C4=C(C=CC=N4)NC3=O + CC1(C)CCC(c2ccc(Cl)cc2)=C(CN2CCN(c3ccc(C(=O)NS(=O)(=O)c4ccc(N[C@H](CCN5CCOCC5)CSc5ccccc5)c(S(=O)(=O)C(F)(F)F)c4)cc3)CC2)C1 [Navitoclax] (partner 0.5 µM)
Outline: as §1

[3] = compound: CN1C=C(C2=CC=CC=C21)/C=C\3/C4=C(C=CC=N4)NC3=O + Cc1cc(Nc2cc(N3CCN(C)CC3)nc(Sc3ccc(NC(=O)C4CC4)cc3)n2)n[nH]1 [Tozasertib] (partner 0.1 µM)
Outline: as §1

Row | Cell Line | relative viability ([1]; first compound 0.0025 µM) | relative viability ([1]; first compound 0.007906 µM) | relative viability ([1]; first compound 0.025 µM) | relative viability ([1]; first compound 0.07906 µM) | relative viability ([1]; first compound 0.25 µM) | relative viability ([2]; first compound 0.02 µM) | relative viability ([2]; first compound 0.06325 µM) | relative viability ([2]; first compound 0.6325 µM) | relative viability ([2]; first compound 2 µM) | relative viability ([3]; first compound 0.02 µM) | relative viability ([3]; first compound 0.06325 µM) | relative viability ([3]; first compound 2 µM) | relative viability ([2]; first compound 0.2 µM) | relative viability ([3]; first compound 0.2 µM) | relative viability ([3]; first compound 0.6325 µM)
1 | NCI-H2228 | 1.02 | 0.876 | 0.801 | 0.711 | 0.433 | 1.22 | 0.796 | 0.67 | 0.812 | 0.15 | 0.223 | 0.192 |  |  | 
2 | EKVX | 0.797 | 0.628 | 0.6 | 0.373 | 0.331 | 0.909 | 0.774 | 0.7 | 0.772 | 0.297 | 0.422 | 0.38 | 0.811 | 0.402 | 0.355
3 | HCC-827 | 0.943 | 0.989 | 0.974 | 0.92 | 0.748 | 0.956 | 1.02 | 1.03 | 0.986 | 0.378 | 0.405 | 0.395 |  |  | 0.53
4 | NCI-H1755 | 0.847 | 0.835 | 0.806 | 0.843 | 0.679 | 0.836 | 1 | 0.909 | 0.885 | 0.56 | 0.557 | 0.509 | 0.98 | 0.605 | 0.502
5 | NCI-H661 | 0.82 | 0.689 | 0.728 | 0.534 | 0.54 |  |  |  |  | 0.344 | 0.349 | 0.36 |  | 0.365 | 0.4
6 | NCI-H1944 |  |  |  |  |  | 1.11 | 1.01 | 1.09 | 1.13 | 0.234 | 0.246 | 0.21 |  |  | 0.234
7 | NCI-H23 | 0.853 | 1.01 | 0.364 | 0.377 | 0.21 | 0.558 | 0.764 | 0.807 | 0.931 | 0.48 | 0.365 | 0.227 |  | 0.304 | 0.328
8 | NCI-H1648 |  |  |  |  |  |  |  |  |  |  | 0.435 | 0.372 |  | 0.435 | 0.387
9 | NCI-H522 |  |  |  |  |  |  |  |  |  | 0.562 | 0.575 | 0.556 |  | 0.518 | 0.283
10 | HCC-366 | 0.962 | 0.897 | 0.902 | 0.645 | 0.172 | 0.945 | 0.994 | 1.07 | 0.986 | 0.09 | 0.109 | 0.0526 | 1.13 | 0.0765 | 0.0587
11 | EBC-1 | 0.631 | 0.544 | 0.427 | 0.376 | 0.337 | 0.37 | 0.426 | 0.48 | 0.498 |  |  |  | 0.384 |  | 
12 | ChaGo-K-1 | 1.12 | 0.871 | 1.05 | 0.713 | 0.476 | 0.816 | 0.939 | 0.902 | 0.801 | 0.194 | 0.221 | 0.201 |  | 0.212 | 0.214
13 | LCLC-97TM1 | 0.616 | 0.482 | 0.128 | 0.0773 | 0.0973 | 0.322 |  | 0.566 | 0.36 | 0.132 | 0.196 | 0.252 |  | 0.181 | 0.332
14 | NCI-H1299 | 1.04 | 0.992 | 0.971 | 0.955 | 0.739 | 1.04 | 0.988 | 1.12 | 1.02 |  |  |  | 1.02 |  | 
